The results in this text go back to patent US20110281807A1, “PLANT DISEASE CONTROL AGENT COMPRISING D-TAGATOSE AS ACTIVE INGREDIENT, AND PLANT DISEASE CONTROL METHOD” (NATIONAL UNIVERSITY CORPORATION KAGAWA UNIVERSITY, priority 2008, published 2011).

Each structure is given as a SMILES string. Values joined by “and” are separate entries in the source; they are usually repeats but may differ in a detail not shown here. Identical values can stand only once. Like-named read-outs stand apart in the source and are kept apart here.

Assay [1] has as its system Pseudoperonospora cubensis. As to the kind of experiment: cucumber downy mildew, pot test: curative effect.
Description: Test plants (cucumber, variety: Sagami hanpaku) were seeded and grown until the one true leaf stage. And then a sporangium suspension of Pseudoperonospora cubensis containing 1×10^3/ml were sprayed on the back side of the leaves of test plants for inoculation and then the plants were put for 16 hours in an inoculation chamber (20° C. to 23° C.) to promote disease. For a curative test, the inoculated plants as described above were used.
D-Tagatose was diluted to 5%, 1% and 0.5% with distilled water and then 10 ml of the dilution was sprayed on the test plant. Seven days after the spraying of D-tagatose the disease severity of the test plants was observed and the effectiveness of test sample was judged. Tests were carried out using two plants for each test set and the disease severity of the test plants was judged. The control value was calculated from the degree of disease severity as in Example 1.
For assay [2], the system named is Pseudoperonospora cubensis. As to the kind of experiment: cucumber downy mildew, pot test: preventive effect. Conditions: for Preventive value (3 DAS): inoculated 3 days after spraying; for Preventive value (5 DAS): inoculated 5 days after spraying.
Description: Test plants (cucumber, variety: Sagami hanpaku) were seeded and grown until the one true leaf stage. D-Tagatose was diluted to 5%, 1% and 0.5% with distilled water and then 10 ml of the dilution was sprayed on the test plant. Three or five days after spraying, a sporangium suspension of Pseudoperonospora cubensis containing 1×10^3/ml were inoculated by spraying on test plants and then the plants were put for 16 hours in an incubation chamber (20° C. to 23° C.) to promote disease. Seven days after inoculation the disease severity of the test plants was observed and the effectiveness of test sample was judged. Tests were carried out using two plants for each test set and the disease severity of the test plants was judged in accordance with the following criteria. The preventive value was calculated from the degree of the disease severity.
0 (No lesion) 1 (Lesion area was not more than 40%) 2 ((Lesion area was 40%-80%) 3 (Lesion area was not less than 80%)
Preventive value=100{1−(n/N)} N=disease severity of untreated leaf, n=disease severity of the tested leaf
Assay [3] concerns Pseudoperonospora cubensis. Conditions: alone.
Description: Test plants (cucumber, variety: Sagami hanpaku) were seeded and grown until the one true leaf stage. D-tagatose alone was diluted to 5%, 1%, 0.5% and 0.1%, and the combination of D-tagatose and other saccharide were diluted to be 0.5% and 0.5% solution respectively with distilled water, and then 10 ml of the dilution was sprayed on the test plant. Three days after spraying of the solution, a sporangium suspension of Pseudoperonospora cubensis containing 1×10^3/ml were inoculated by spraying on test plants and then put them for 16 hours in an inoculation chamber (20° C. to 23° C.) to promote disease. Seven days after inoculation the disease severity of the test plants was observed and the effectiveness of test sample was judged. Tests were carried out using two plants for each test set and the disease severity of the test plants was judged in accordance with the following criteria. The preventive value was calculated from the degree of disease severity as in example 1.
Synergistic effect was determined by the Colby's equation below.
X is the observed effect, in percentage, of the first active ingredient and, and Y is the observed effect, in percentage, of the second active ingredient. E is the effect, in percentage, of the mixture expected from additive contribution of the individual components.
Assay [4] relates to Puccinia recondita. The assay can be described thus: wheat brown rust, field trial. Particulars: 200 ppm.
Description: Test plants (variety: Nourin 61 gou) were sowed and grown until heading stage. D-Tagatose was diluted to 5% with distilled water and sprayed thoroughly on the plants two times every 8 days. Three days after the first spraying of the dilution, wheat leaves inoculated with wheat fusarium blight (Puccinia recondita) were kept in the test plants. The disease severity of the test plants was observed 21 days after last spraying and the effectiveness of test sample was judged. Tests were carried out in duplicate. One plot of each test was 5 m^2. The disease severity of the test plants was judged in accordance with the following criteria. The preventive value was calculated from the degree of disease severity.
Assay [5] concerns Puccinia recondita. Conditions: Puccinia recondita, in Triticum aestivum, 168 h, read-out: Preventive value.
Description: Test plants (variety: Nourin 61 gou) were sowed and grown until two leaves stage.
D-Tagatose and fungicide were diluted to 10000 ppm and the concentration listed in table 19, respectively, with distilled water, and 10 ml of the dilution was sprayed thoroughly on the plants. Three days after the spraying of the dilution, the plants were inoculated with Puccinia recondita containing 1×10^3/ml and then put for 16 hours in an inoculation chamber (20° C. to 23° C.) to promote disease. Seven days after inoculation the disease severity of the test plants was observed and the effectiveness of test sample was judged.
Assay [6] has as its system Botrytis cinerea. Particulars: Botrytis cinerea, in Solanum lycopersicum, 168 h, read-out: Preventive value.
The test system of assay [7] is Erysiphe graminis f.sp. hordei. Particulars: Blumeria graminis, in Hordeum vulgare, 168 h, read-out: Preventive value.
Description: Test plants (barley, variety: Akashinriki) were seeded and grown until the one leaf stage. D-tagatose and fungicide were diluted to 5000 ppm and the concentrations listed in table 21, respectively, with distilled water and 10 ml of the dilution was sprayed thoroughly on the plants. Three days after spraying, a condia suspension of Erysiphe graminis f.sp. hordei was inoculated by spraying on test plants. 7 days after inoculation the disease severity of the test plants was observed and the effectiveness of test sample was judged.
Assay [8] concerns Sphaerotheca fuliginea. Conditions: Podosphaera fuliginea, in Cucumis sativus, 168 h, read-out: Preventive value.
Assay [9] relates to Phytophthora infestans. The assay can be described thus: whole plant or invertebrate. Conditions: Phytophthora infestans, in Solanum lycopersicum, 168 h, read-out: Preventive value. In kind it is in vivo.
Assay [10] has as its system Pyricularia oryze. As to the kind of experiment: whole plant or invertebrate. The class given is in vivo. Particulars: Pyricularia, in Oryza sativa, 168 h, read-out: Preventive value.
The subject of assay [11] is Pythium aphanidermatum. The assay can be described thus: cucumber damping-off, pot test: soil drench of D-tagatose combined with fungicides. Particulars: Pythium aphanidermatum, in Cucumis sativus, soil, 336 h, read-out: Preventive value.
Assay [12] concerns Plasmopara viticola. Conditions: Plasmopara viticola, 168 h, read-out: Preventive value.
Description: Test plants (variety: Neo Muscat) were seeded and grown until three leaves. D-Tagatose was diluted to 5000 ppm and the fungicides were diluted to the concentrations listed in table 16, with distilled water, and 10 ml of the dilution was sprayed on the plants. Three days after the spraying of the dilution, the plants were infected by spraying a sporangium suspension of Plasmopara viticola containing 1×10^3/ml and then put for 16 hours in an inoculation chamber (20° C. to 23° C.) to promote disease. The disease severity of the test plants was observed 7 days after inoculation, and the effectiveness of test sample was judged.
The test system of assay [13] is Pseudoperonospora cubensis. Conditions: Pseudoperonospora cubensis, in Cucumis sativus, 168 h, read-out: Preventive value.
Description: Test plants (cucumber, variety: Sagami hanpaku) were seeded and grown until the one true leaf stage. And then, a sporangium suspension of Pseudoperonospora cubensis containing 1×10^3/ml were spraying for inoculation on the back side of the leaves of test plants and then put for 16 hours in an inoculation chamber (20° C. to 23° C.) to promote disease. For a curative test, the inoculated plants as described above were used.
D-Tagatose was diluted to 5000 ppm and the fungicides were diluted to the concentrations listed in table 15, with distilled water, and 10 ml of the dilution was sprayed. Seven days after inoculation the disease severity of the test plants was observed and the effectiveness of test sample was judged.
The subject of assay [14] is Pseudoperonospora cubensis. Particulars: Pseudoperonospora cubensis, in Cucumis sativus, 168 h, read-out: Preventive value. This is another data set of the same source.

On to `CSC(=O)c1cccc2nnsc12` [Acibenzolar-S-Methyl, acibenzolar-S-methyl], for which, in assay [1] (50 ppm sprayed after inoculation (curative)), the “Preventive value (control value)” value was found to be 25.0. Moreover, in assay [2] (50 ppm spray), the “Preventive value (3 DAS)” value was 91.7 and the “Preventive value (5 DAS)” value came out at 99.2. Moreover, the Preventive value in assay [3] (50 ppm) amounted to 95.0.

In the case of `O=C(CO)[C@@H](O)[C@H](O)[C@H](O)CO` [D-Fuctose, D-fructose], the Preventive value in [3] (5000 ppm) is 0.0.

The compound `O=C[C@@H](O)[C@@H](O)[C@H](O)[C@H](O)CO` [D-Mannose, D-mannose] came in with a Preventive value in assay [3] (5000 ppm) of 0.0.

In turn, `O=C(CO)[C@H](O)[C@H](O)[C@H](O)CO` [D-Psicose, D-psicose] came in with a Preventive value in assay [3] (5000 ppm) of 0.0.

The compound `O=C(CO)[C@H](O)[C@@H](O)[C@H](O)CO` [D-Sorbose, D-sorbose] showed a Preventive value in assay [3] (5000 ppm) of 0.0.

As to `C=CCOC1=NS(=O)(=O)c2ccccc21` [Probenazole, probenazole], the “Preventive value (control value)” value in [1] (100 ppm sprayed after inoculation (curative)) came to 18.3. Further, in assay [2] (100 ppm spray), the “Preventive value (3 DAS)” value worked out at 33.3 and the “Preventive value (5 DAS)” value is 95.0. Further, in assay [3] (100 ppm), the Preventive value is listed as 66.7.

For the compound `CC(C)(C)C(O)(CCc1ccc(Cl)cc1)Cn1cncn1` (centres unmarked) [Tebuconazole, tebuconazole], the “D.D.S (Degree of disease severity), Av” value in [4] (average of plots) was determined as 0.2. For the same compound, in [4] (per plot (1, 2), 100 leaves), the “Leaves number(n) of disease severity 0” value is 98 and 100; the “Leaves number(n) of disease severity 2” value is 0; the “Leaves number(n) of disease severity 3” value worked out at 0; the “Leaves number(n) of disease severity 4” value worked out at 0. In addition, in [4] (per plot (1, 2), 100 leaves), the “Leaves number(n) of disease severity 5” value amounted to 0 and the “Leaves number(n) of disease severity 6” value is 0. Also, in [4] (sprayed two times every 8 days, rated 21 days after last spraying), the “P.V. (Preventive value), Av” value stood at 99.8. Moreover, the pest or weed control at 0.4 ppm in assay [5] stood at 50%. The pest or weed control at 10 ppm in assay [6] was determined as 33%. In addition, the pest or weed control at 0.4 ppm in assay [7] is 67%. Further, in [8], the pest or weed control at 0.4 ppm amounted to 73%.

As to `C[Si](C)(C)CC(O)(Cn1cncn1)c1ccc(F)cc1` (centres unmarked) [simeconazole], the pest or weed control at 250 ppm was 0% in assay [9]; 73% in assay [10]; 0% in assay [11]; 0% in assay [12]; 0% in assay [13]; 0% in [14]. The pest or weed control at 10 ppm in assay [5] is 67%. In addition, the pest or weed control at 50 ppm in assay [6] was 33%. In addition, the values for the pest or weed control at 0.4 ppm in assay [7] and in [8] were 50% and 83%, respectively.

As for `COC(=O)NC(=S)Nc1ccccc1NC(=S)NC(=O)OC` [thiophanate-methyl], the pest or weed control at 250 ppm came out at 0% in assay [9]; 83% in assay [10]; 0% in [11]; 0% in [12]; 0% in assay [13]; 0% in assay [14]. Besides, the pest or weed control at 10 ppm in [5] was 40%; in [7] it was 83%; in assay [8], 83%. The pest or weed control at 50 ppm in [6] is 83%.
